For one assay, the system named is KB. Briefly: Cytotoxicity against human KB cells assessed as reduction in cell number after 3 days. Format: functional. Particulars: 72 h, read-out: ID50 (the source's name).
The target of assay [1] is DNA topoisomerase 2-alpha (Homo sapiens) (UniProt P11388). Briefly: Inhibition of human DNA topoisomerase 2.
Assay [2] shares this target. The assay is described as follows: Inhibition of strand rejoining activity of human DNA topoisomerase 2 assessed as protein-DNA complex formation at 10 uM by cell-based assay. The arrangement: scale not given: the % may be the effect or the level left.
A further assay has as its system EMT6. Briefly: Ratio of cytotoxicity for normally oxygenated mouse EMT6 cells over hypoxic mouse EMT6 cells. The format is functional.

SMILES strings stand for the structures. Bounds are passed on as bounds.

DNA topoisomerase 2-alpha (Homo sapiens), sequence (P11388 whole entry): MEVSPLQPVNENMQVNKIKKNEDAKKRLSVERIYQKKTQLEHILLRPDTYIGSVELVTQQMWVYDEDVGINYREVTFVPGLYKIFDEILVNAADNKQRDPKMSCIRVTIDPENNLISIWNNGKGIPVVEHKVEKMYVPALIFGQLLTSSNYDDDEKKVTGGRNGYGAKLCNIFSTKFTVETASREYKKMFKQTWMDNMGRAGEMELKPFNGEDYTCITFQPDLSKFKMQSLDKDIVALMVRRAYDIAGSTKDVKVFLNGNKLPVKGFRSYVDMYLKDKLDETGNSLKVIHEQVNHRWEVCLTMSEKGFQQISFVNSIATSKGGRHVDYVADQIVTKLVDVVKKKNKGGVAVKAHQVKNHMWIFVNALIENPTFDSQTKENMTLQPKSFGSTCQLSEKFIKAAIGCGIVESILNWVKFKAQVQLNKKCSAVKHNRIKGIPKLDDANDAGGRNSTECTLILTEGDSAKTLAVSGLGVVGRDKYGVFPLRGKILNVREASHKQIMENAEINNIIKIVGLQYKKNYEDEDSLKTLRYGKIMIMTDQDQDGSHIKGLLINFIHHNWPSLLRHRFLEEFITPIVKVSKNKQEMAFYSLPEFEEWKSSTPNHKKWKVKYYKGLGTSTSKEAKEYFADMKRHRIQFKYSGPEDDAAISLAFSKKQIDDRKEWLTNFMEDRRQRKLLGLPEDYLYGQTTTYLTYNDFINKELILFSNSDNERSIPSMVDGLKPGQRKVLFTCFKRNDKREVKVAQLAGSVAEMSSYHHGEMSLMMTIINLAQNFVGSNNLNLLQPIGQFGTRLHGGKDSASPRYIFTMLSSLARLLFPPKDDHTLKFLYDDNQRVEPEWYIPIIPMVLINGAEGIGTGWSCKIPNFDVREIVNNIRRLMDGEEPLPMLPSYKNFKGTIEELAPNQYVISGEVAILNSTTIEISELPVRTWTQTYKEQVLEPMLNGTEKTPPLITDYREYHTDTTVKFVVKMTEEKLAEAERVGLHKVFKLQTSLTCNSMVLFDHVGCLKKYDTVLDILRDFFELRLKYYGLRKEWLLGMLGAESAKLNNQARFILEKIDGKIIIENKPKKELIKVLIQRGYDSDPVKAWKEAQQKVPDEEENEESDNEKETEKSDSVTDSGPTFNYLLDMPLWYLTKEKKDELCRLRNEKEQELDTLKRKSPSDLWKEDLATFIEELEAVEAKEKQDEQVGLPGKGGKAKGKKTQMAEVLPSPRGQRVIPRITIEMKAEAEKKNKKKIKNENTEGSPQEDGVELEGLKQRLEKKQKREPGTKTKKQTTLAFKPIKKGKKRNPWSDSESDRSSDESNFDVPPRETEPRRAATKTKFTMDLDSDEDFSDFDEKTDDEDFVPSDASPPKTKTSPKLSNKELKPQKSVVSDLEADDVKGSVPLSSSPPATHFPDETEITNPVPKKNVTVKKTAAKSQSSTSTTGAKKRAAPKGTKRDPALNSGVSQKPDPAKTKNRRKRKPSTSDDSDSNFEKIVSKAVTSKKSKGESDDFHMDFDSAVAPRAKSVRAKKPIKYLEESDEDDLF

For the compound `COc1cc([C@@H]2c3cc4c(cc3[C@@H](Nc3ccccc3)[C@H]3COC(=O)[C@H]23)OCO4)cc(OC)c1O`, in the assay on KB, the IC50 turned out to be 700 nM. Moreover, in assay [1], the ID50 was found to be 25 µM. Moreover, the Activity in assay [2] was determined as 243%.

For `COc1cc([C@@H]2c3cc4c(cc3[C@@H](Nc3cncc5ccccc35)[C@H]3COC(=O)[C@H]23)OCO4)cc(OC)c1O`, in the assay with KB, the IC50 is below 1000 nM. Moreover, the ID50 in assay [1] is 50 µM. The Activity in assay [2] came out at 123%.

Turning to `COc1cc([C@@H]2c3cc4c(cc3[C@@H](Nc3ccc([N+](=O)[O-])cc3)[C@H]3COC(=O)[C@H]23)OCO4)cc(OC)c1O`, the IC50 in the assay with KB is 500 nM. Also, in assay [1], the ID50 worked out at 10 µM. Also, in assay [2], the Activity was 323%.

`COc1cc([C@@H]2c3cc4c(cc3[C@@H](Nc3ccc(F)cc3)[C@H]3COC(=O)[C@H]23)OCO4)cc(OC)c1O`: in the assay on KB, the IC50 stood at 200 nM. In assay [1], this compound gave an ID50 of 5 µM. For the same compound, in assay [2], the Activity amounted to 2.13%.

`COc1cc([C@@H]2c3cc4c(cc3[C@@H](Nc3ccc(C#N)cc3)[C@H]3COC(=O)[C@H]23)OCO4)cc(OC)c1O`: the IC50 with KB came out at 600 nM. Also, the Activity in assay [2] came to 211%.

With `COC(=O)c1ccc(N[C@@H]2c3cc4c(cc3[C@@H](c3cc(OC)c(O)c(OC)c3)[C@H]3C(=O)OC[C@@H]32)OCO4)cc1O`, the IC50 in the assay on KB was 5800 nM. Besides, the ID50 in assay [1] worked out at 50 µM. Further, the Activity in assay [2] came out at 129%.

As to `COc1cc([C@@H]2c3cc4c(cc3[C@@H](Nc3cccc([N+](=O)[O-])c3)[C@H]3COC(=O)[C@H]23)OCO4)cc(OC)c1O`, the IC50 in the assay with KB was found to be 1000 nM. For the same compound, the ID50 in assay [1] is 50 µM. Further, the Activity in assay [2] came to 230%.

In the case of `COC(=O)c1cccc(N[C@@H]2c3cc4c(cc3[C@@H](c3cc(OC)c(O)c(OC)c3)[C@H]3C(=O)OC[C@@H]32)OCO4)c1`, the IC50 with KB came out at 2700 nM. For the same compound, in assay [1], the ID50 came out at 50 µM. In addition, the Activity in assay [2] turned out to be 129%.

`COc1cc([C@@H]2c3cc4c(cc3[C@@H](O[C@@H]3O[C@@H]5CO[C@@H](C)O[C@H]5[C@H](O)[C@H]3O)[C@H]3COC(=O)[C@H]23)OCO4)cc(OC)c1O` [ETOPOSIDE]: in the assay with EMT6, the Ratio was found to be 30. The Activity in assay [2] was 100%.

Regarding `COc1cc([C@@H]2c3cc4c(cc3[C@@H](Nc3cc(C(F)(F)F)cc(C(F)(F)F)c3)[C@H]3COC(=O)[C@H]23)OCO4)cc(OC)c1O`, the IC50 in the assay on KB was 3400 nM. In assay [1], this compound returned an ID50 above 100 µM. Besides, the Activity in assay [2] is 21%.

Take `COc1cc([C@@H]2c3cc4c(cc3[C@@H](Oc3ccc(F)cc3)[C@H]3COC(=O)[C@H]23)OCO4)cc(OC)c1O`: the IC50 in the assay on KB turned out to be 500 nM. Also, the ID50 in assay [1] was above 100 µM. Moreover, the Activity in assay [2] was 57%.

`CCOC(=O)c1ccc(N[C@@H]2c3cc4c(cc3[C@@H](c3cc(OC)c(O)c(OC)c3)[C@H]3C(=O)OC[C@@H]32)OCO4)cc1`: the IC50 in the assay with KB was 840 nM. Moreover, in assay [1], the ID50 is 5 µM. In addition, the Activity in assay [2] was found to be 207%.

The values above are taken from ChEMBL document CHEMBL1149733, “Antitumor agents, 130, Novel 4 beta-arylamino derivatives of 3',4'-didemethoxy-3',4'-dioxo-4-deoxypodophyllotoxin as potent inhibitors of human DNA topoisomerase II” (1992).
